The record followed here is patent US11077090B2, “Compounds and compositions and uses thereof” (Sunovion Pharmaceuticals Inc., priority 2016, dated 2021).

Molecules are shown by their SMILES. Some results are limits rather than exact numbers.

The minimal effective dose is the smallest amount tested that counted as effective.

The test system of the first assay is compound-treated mice. The experiment in a line: Neuropharmacological assay (SmartCube): behavioral activity signature and minimal effective dose. The following applies: MED = dose having 50% or more total activity. Format: in vivo. The method, boiled down:
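Mice dosed i.p. 15 min before test, compound in N-methyl-2-pyrrolidone/PEG/propylene glycol, 3 doses; video-captured behavior matched to reference-drug signatures, giving per-class probabilities at most efficacious dose. MED from doses typically 0.3–30 mpk, defined as lowest dose with ≥50% total activity.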
Take `C[C@@H]1OCc2ccc(F)cc2[C@H]1N` [Example 184]: the “Potency: minimal effective dose (MED), binned” value is given as “A (≤3 mpk)”.

Staying with this assay, now noted: Mus musculus, ip, MED = dose having 50% or more total activity, read-out: Potency: minimal effective dose (MED).
Consider `Cc1ccc2c(c1)[C@H](N)[C@@H](C)OC2` [Example 155], for which the minimal effective dose lay in the range of 3 to 10 mg/kg.
As for `Cc1ccc2c(c1)[C@@H](N)[C@H](C)OC2` [Example 156], the minimal effective dose was 3 to 10 mg/kg.

The same assay, now with this note: Mus musculus, ip, MED = dose having 50% or more total activity, read-out: Potency: minimal effective dose (MED), binned.
On to `C[C@H]1OCc2cccc(Cl)c2[C@@H]1N` [Example 159], for which the minimal effective dose was 3 to 10 mg/kg.
Consider `CC[C@H]1OCc2ccc(F)cc2[C@@H]1N` [Example 181], for which the minimal effective dose was < 3 mg/kg.
The same measure, in the same setting: the value for `CC[C@@H]1OCc2ccc(F)cc2[C@H]1N` [Example 182] was < 3 mg/kg; that for `C[C@H]1OCc2ccc(F)cc2[C@@H]1N` [Example 183] was < 3 mg/kg; that for `C[C@@H]1OCc2ccc(F)cc2[C@@H]1N` [Example 185] was < 3 mg/kg.
On the same count and under the same terms, the value for `C[C@H]1OCc2ccc(F)cc2[C@H]1N` [Example 186] was 3 to 10 mg/kg; that for `CC[C@@H]1OCc2ccc(F)cc2[C@@H]1N` [Example 187] was < 3 mg/kg.
Still for that read-out and setting: the same measure for `CC[C@H]1OCc2ccc(F)cc2[C@H]1N` [Example 188]: < 3 mg/kg.
Regarding `Cc1ccc2c(c1)CO[C@@H](C)[C@H]2N` [Example 189], the minimal effective dose lay in the range of 10 to 30 mg/kg.
For `Cc1ccc2c(c1)CO[C@H](C)[C@@H]2N` [Example 190], the minimal effective dose was 3 to 10 mg/kg.

The assay is the same for the next values; noted with them: i.p. 15 min before test, most efficacious dose(s).
As to `Cc1ccc2c(c1)[C@H](N)[C@@H](C)OC2` [Example 155], the “AD: ADHD (probability of activity signature)” value (from here on “AD: ADHD”) is “+ (LOQ ≤ + <5%)”, the “AG: analgesic (probability of activity signature)” value (shortened to “AG: analgesic”) is listed as “++ (5% ≤ ++ <25%)”, the “AX: anxiolytic (probability of activity signature)” value (“AX: anxiolytic” for short) was “++++ (50% ≤ ++++)” and the “CE: cognitive enhancer (probability of activity signature)” value (“CE: cognitive enhancer” for short) is reported as “++ (5% ≤ ++ <25%)”. In addition, the “DP: anti-depressant (probability of activity signature)” value (“DP: anti-depressant” for short) is “++ (5% ≤ ++ <25%)”, the “MS: mood stabilizer (probability of activity signature)” value (from here on “MS: mood stabilizer”) is “+ (LOQ ≤ + <5%)”, the “PS: anti-psychotic (probability of activity signature)” value (from here on “PS: anti-psychotic”) is on record as “++ (5% ≤ ++ <25%)” and the “SD: sedative hypnotic (probability of activity signature)” value (“SD: sedative hypnotic” for short) is “++ (5% ≤ ++ <25%)”. The “UN: uncharacterized CNS activity (probability of activity signature)” value (“UN: uncharacterized CNS activity” below) was “++ (5% ≤ ++ <25%)”.
In the case of `Cc1ccc2c(c1)[C@@H](N)[C@H](C)OC2` [Example 156], the “AD: ADHD” value is given as “+ (LOQ ≤ + <5%)”, the “AG: analgesic” value is “++ (5% ≤ ++ <25%)”, the “AX: anxiolytic” value is reported as “++ (5% ≤ ++ <25%)” and the “CE: cognitive enhancer” value is given as “++ (5% ≤ ++ <25%)”. Further, the “DP: anti-depressant” value is recorded as “+ (LOQ ≤ + <5%)”, the “MS: mood stabilizer” value is “+ (LOQ ≤ + <5%)”, the “PS: anti-psychotic” value is reported as “+ (LOQ ≤ + <5%)” and the “SD: sedative hypnotic” value is “+ (LOQ ≤ + <5%)”. The “UN: uncharacterized CNS activity” value is given as “+++ (25% ≤ +++ <50%)”.
Take `C[C@H]1OCc2cccc(Cl)c2[C@@H]1N` [Example 159]: the “AD: ADHD” value is “+ (LOQ ≤ + <5%)”, the “AG: analgesic” value is recorded as “+ (LOQ ≤ + <5%)”, the “AX: anxiolytic” value is “+++ (25% ≤ +++ <50%)” and the “CE: cognitive enhancer” value is “+ (LOQ ≤ + <5%)”. Besides, the “DP: anti-depressant” value is “+++ (25% ≤ +++ <50%)”, the “MS: mood stabilizer” value is “+ (LOQ ≤ + <5%)”, the “PS: anti-psychotic” value is “+ (LOQ ≤ + <5%)” and the “SD: sedative hypnotic” value is given as “+ (LOQ ≤ + <5%)”. The “UN: uncharacterized CNS activity” value was “++ (5% ≤ ++ <25%)”.
Consider `CC[C@H]1OCc2ccc(F)cc2[C@@H]1N` [Example 181], for which the “AD: ADHD” value is “+ (LOQ ≤ + <5%)”, the “AG: analgesic” value was “++ (5% ≤ ++ <25%)”, the “AX: anxiolytic” value is “++ (5% ≤ ++ <25%)” and the “CE: cognitive enhancer” value is reported as “++ (5% ≤ ++ <25%)”. Besides, the “DP: anti-depressant” value is “+ (LOQ ≤ + <5%)”, the “MS: mood stabilizer” value is on record as “+ (LOQ ≤ + <5%)”, the “PS: anti-psychotic” value is “++ (5% ≤ ++ <25%)” and the “SD: sedative hypnotic” value is recorded as “+++ (25% ≤ +++ <50%)”. Also, the “UN: uncharacterized CNS activity” value was “++++ (50% ≤ ++++)”.
On to `CC[C@@H]1OCc2ccc(F)cc2[C@H]1N` [Example 182], for which the “AD: ADHD” value is “+ (LOQ ≤ + <5%)”, the “AG: analgesic” value is “+ (LOQ ≤ + <5%)”, the “AX: anxiolytic” value is given as “++ (5% ≤ ++ <25%)” and the “CE: cognitive enhancer” value is reported as “++ (5% ≤ ++ <25%)”. For the same compound, the “DP: anti-depressant” value is reported as “++ (5% ≤ ++ <25%)”, the “MS: mood stabilizer” value was “+ (LOQ ≤ + <5%)”, the “PS: anti-psychotic” value is “+++ (25% ≤ +++ <50%)” and the “SD: sedative hypnotic” value is “+ (LOQ ≤ + <5%)”. Also, the “UN: uncharacterized CNS activity” value is reported as “++++ (50% ≤ ++++)”.
Consider `C[C@H]1OCc2ccc(F)cc2[C@@H]1N` [Example 183], for which the “AD: ADHD” value is listed as “+ (LOQ ≤ + <5%)”, the “AG: analgesic” value is given as “++ (5% ≤ ++ <25%)”, the “AX: anxiolytic” value was “++ (5% ≤ ++ <25%)” and the “CE: cognitive enhancer” value is “++ (5% ≤ ++ <25%)”. The “DP: anti-depressant” value is “++ (5% ≤ ++ <25%)”, the “MS: mood stabilizer” value is given as “+ (LOQ ≤ + <5%)”, the “PS: anti-psychotic” value is given as “++ (5% ≤ ++ <25%)” and the “SD: sedative hypnotic” value is reported as “++ (5% ≤ ++ <25%)”. The “UN: uncharacterized CNS activity” value was “++++ (50% ≤ ++++)”.
`C[C@@H]1OCc2ccc(F)cc2[C@H]1N` [Example 184]: the “AD: ADHD” value is “+ (LOQ ≤ + <5%)”, the “AG: analgesic” value is on record as “+ (LOQ ≤ + <5%)”, the “AX: anxiolytic” value is “++ (5% ≤ ++ <25%)” and the “CE: cognitive enhancer” value is “++ (5% ≤ ++ <25%)”. Further, the “DP: anti-depressant” value is given as “++ (5% ≤ ++ <25%)”, the “MS: mood stabilizer” value is listed as “+ (LOQ ≤ + <5%)”, the “PS: anti-psychotic” value is “++ (5% ≤ ++ <25%)” and the “SD: sedative hypnotic” value is “+ (LOQ ≤ + <5%)”. In addition, the “UN: uncharacterized CNS activity” value is “++++ (50% ≤ ++++)”.
As for `C[C@@H]1OCc2ccc(F)cc2[C@@H]1N` [Example 185], the “AD: ADHD” value was “+ (LOQ ≤ + <5%)”, the “AG: analgesic” value is listed as “++ (5% ≤ ++ <25%)”, the “AX: anxiolytic” value is listed as “+++ (25% ≤ +++ <50%)” and the “CE: cognitive enhancer” value is recorded as “++ (5% ≤ ++ <25%)”. For the same compound, the “DP: anti-depressant” value was “+ (LOQ ≤ + <5%)”, the “MS: mood stabilizer” value was “+ (LOQ ≤ + <5%)”, the “PS: anti-psychotic” value was “++ (5% ≤ ++ <25%)” and the “SD: sedative hypnotic” value is on record as “+ (LOQ ≤ + <5%)”. Also, the “UN: uncharacterized CNS activity” value was “++++ (50% ≤ ++++)”.
`C[C@H]1OCc2ccc(F)cc2[C@H]1N` [Example 186]: the “AD: ADHD” value was “+ (LOQ ≤ + <5%)”, the “AG: analgesic” value is “++ (5% ≤ ++ <25%)”, the “AX: anxiolytic” value was “++ (5% ≤ ++ <25%)” and the “CE: cognitive enhancer” value is on record as “++ (5% ≤ ++ <25%)”. Besides, the “DP: anti-depressant” value was “++ (5% ≤ ++ <25%)”, the “MS: mood stabilizer” value is on record as “+ (LOQ ≤ + <5%)”, the “PS: anti-psychotic” value is listed as “++ (5% ≤ ++ <25%)” and the “SD: sedative hypnotic” value was “+ (LOQ ≤ + <5%)”. Further, the “UN: uncharacterized CNS activity” value is listed as “+++ (25% ≤ +++ <50%)”.
For `CC[C@@H]1OCc2ccc(F)cc2[C@@H]1N` [Example 187], the “AD: ADHD” value is “+ (LOQ ≤ + <5%)”, the “AG: analgesic” value is “++ (5% ≤ ++ <25%)”, the “AX: anxiolytic” value is “++ (5% ≤ ++ <25%)” and the “CE: cognitive enhancer” value is on record as “++ (5% ≤ ++ <25%)”. Besides, the “DP: anti-depressant” value is listed as “+ (LOQ ≤ + <5%)”, the “MS: mood stabilizer” value was “+ (LOQ ≤ + <5%)”, the “PS: anti-psychotic” value is given as “+++ (25% ≤ +++ <50%)” and the “SD: sedative hypnotic” value is “+ (LOQ ≤ + <5%)”. The “UN: uncharacterized CNS activity” value is reported as “++++ (50% ≤ ++++)”.
Turning to `CC[C@H]1OCc2ccc(F)cc2[C@H]1N` [Example 188], the “AD: ADHD” value is given as “+ (LOQ ≤ + <5%)”, the “AG: analgesic” value is “++ (5% ≤ ++ <25%)”, the “AX: anxiolytic” value is “++ (5% ≤ ++ <25%)” and the “CE: cognitive enhancer” value is recorded as “+ (LOQ ≤ + <5%)”. In addition, the “DP: anti-depressant” value is “++ (5% ≤ ++ <25%)”, the “MS: mood stabilizer” value is recorded as “+ (LOQ ≤ + <5%)”, the “PS: anti-psychotic” value is reported as “++ (5% ≤ ++ <25%)” and the “SD: sedative hypnotic” value is reported as “+ (LOQ ≤ + <5%)”. The “UN: uncharacterized CNS activity” value is reported as “++++ (50% ≤ ++++)”.
Take `Cc1ccc2c(c1)CO[C@@H](C)[C@H]2N` [Example 189]: the “AD: ADHD” value is on record as “+ (LOQ ≤ + <5%)”, the “AG: analgesic” value is reported as “++ (5% ≤ ++ <25%)”, the “AX: anxiolytic” value is “++ (5% ≤ ++ <25%)” and the “CE: cognitive enhancer” value is reported as “++ (5% ≤ ++ <25%)”. Moreover, the “DP: anti-depressant” value was “++ (5% ≤ ++ <25%)”, the “MS: mood stabilizer” value is “+ (LOQ ≤ + <5%)”, the “PS: anti-psychotic” value is given as “++ (5% ≤ ++ <25%)” and the “SD: sedative hypnotic” value is reported as “+ (LOQ ≤ + <5%)”. The “UN: uncharacterized CNS activity” value was “+++ (25% ≤ +++ <50%)”.
`Cc1ccc2c(c1)CO[C@H](C)[C@@H]2N` [Example 190]: the “AD: ADHD” value was “+ (LOQ ≤ + <5%)”, the “AG: analgesic” value is recorded as “+ (LOQ ≤ + <5%)”, the “AX: anxiolytic” value is given as “++ (5% ≤ ++ <25%)” and the “CE: cognitive enhancer” value is recorded as “++ (5% ≤ ++ <25%)”. Besides, the “DP: anti-depressant” value is on record as “+ (LOQ ≤ + <5%)”, the “MS: mood stabilizer” value is on record as “+ (LOQ ≤ + <5%)”, the “PS: anti-psychotic” value is “++ (5% ≤ ++ <25%)” and the “SD: sedative hypnotic” value is given as “++ (5% ≤ ++ <25%)”. Also, the “UN: uncharacterized CNS activity” value was “++++ (50% ≤ ++++)”.
